Measured values reported in patent publication US7592188B2, “Live cell biosensors” (The Scripps Research Institute, priority 2004, dated 2009).
“Also recorded” adds a separate entry of the source.

B1: I—SO-WASP biosensor: I—SO dye attached at position F271C of the WASP fragment (conjugate)
chain: DIQNPDITSSRYRGLPAPGPSPADKKRSGKKKISKADIGAPSGFKHVSHVGWDPQNGFDVNNLDPDLRSLCSRAGISEAQLTDAETSKLIYDFIEDQGGLEAVRQEMRRQEPLPPPPPPS
modifications: left off: small tags and cut ends
notes: I—SO dye attached at position F271C of the WASP fragment
B2: MeroCBD (conjugate)
chain: DIQNPDITSSRYRGLPAPGPSPADKKRSGKKKISKADIGAPSGFKHVSHVGWDPQNGFDVNNLDPDLRSLCSRAGISEAQLTDAETSKLIYDFIEDQGGLEAVRQEMRRQEPLP
modifications: left off: large carriers

What was measured:
Rho kinase = experiment: Extension and retraction of protrusions with Rho kinase inhibitor; type: cell-based
Text: These possibilities were distinguished by blocking retraction using an inhibitor of Rho kinase (Y27632).

[1] = Photophysical properties of dyes in various solvents (absorbance, emission, quantum yield); type: physicochemical; design: ε × F / ε × Φ: unit not given here
Method: Analytical grade reagents were purchased from major suppliers. […] Emission and excitation spectra were obtained using a Spex Fluorolog 2 spectrofluorometer at 23° C. […] Demas et al., J. Phys. […] All operations with dyes were performed under dim light. Flasks containing dyes were wrapped with aluminum foil.

[2] = Dye photo-bleaching under tungsten lamp irradiation; type: physicochemical
Method: Photo-bleaching. All samples contained 1 mM dye in a final volume of 10 mL. For nitrogen and oxygen saturation the samples were bubbled with solvent-saturated gas for 30 min. A 90 W halogen tungsten lamp was employed for irradiation, with a fan used for cooling. The temperature of samples was 25±1° C. during reactions. The absorption spectrum of each sample was measured before irradiation and after every 10 h period. For the trapping experiment thioanisole (1.0 M) was added to oxygen-saturated butanol solution of dye 1b. After 60 h of irradiation the reaction mixture was analyzed by GC-MS for products formed. The products, methylphenylsulfoxide and methylphenyl sulfone, were identified by comparison with authentic samples.
Dyes used in living cells must be photostable to provide many sequential images and to obtain sufficient light from minimal amounts of exogenous labeled material. The photostability of the new dyes was characterized by exposing them to constant illumination from a tungsten lamp filtered through glass, a broad spectrum light source that provided essentially equal intensity throughout the spectral range where the dyes would be irradiated in vivo. A fan was used to prevent heating, and dye solutions were adjusted for equal maximal absorbance, kept below 1 μM to minimize the inner filter effect. […] Photo-bleaching followed first-order kinetics in all cases.

[3] = Quantum yield of triplet state formation; type: physicochemical; conditions: in ethanol
Rac = biological target: T1, Rac (Homo sapiens, UniProt P63000); experiment: Specificity of I-SO WASP biosensor for activated GTPases; type: binding; conditions: concentrations well above physiological levels
T1 construct: 6His; made in house; host or cells: E. coli BL21DE3, only by the words 'analogous procedures'
Method: (§1) Further studies were conducted using the I—SO dye 4b attached at position F271 C of the WASP fragment. This biosensor had properties similar to the S—SO biosensor described above. […] To determine the specificity of the biosensor, interactions with different activated GTPases were examined. The biosensor distinguished proteins closely related to Cdc42 from other members of the Rho family.

RhoA = biological target: T2, RhoA (Homo sapiens, UniProt P61586); experiment: as above; type: binding; conditions: concentrations well above physiological levels
T2 construct: 6His; made in house; host or cells: E. coli BL21DE3, only by the words 'analogous procedures'
Method: as §1

TC10 = TC10 (Homo sapiens, UniProt P17081); experiment: as above; type: binding
Method: as §1

Cdc42 = experiment: MeroCBD biosensor imaging of Cdc42 activation in living cells; type: cell-based; conditions: in words
Text: The I—SO labeled WASP fragment provided a straightforward means to assay Cdc42 activation in cell lysates. By simply adding the biosensor to the lysate, the fluorescence readout of Cdc42 activation. This method was used to determine the kinetics of Cdc42 activation in neutrophils after stimulation with chemoattractant fMetLeuPhe (FMLP) peptide. Results obtained paralleled those previously reported using well-established methods (Benard et al., J. Biol. Chem. 275: 36457 (2000). Fluorescence of the biosensor was also used to monitor the real-time kinetics of Cdc42 GDP/GTP exchange in vitro. Because the labeled WASP fragment responded to activated Cdc42 through fluorescence intensity modulation, a ratiometric imaging approach was used to correct for effects of varying cell thickness, uneven illumination, and other factors that could affect imaging of dye intensity (Bright et al., Methods Cell Biol. 14: 157 (1989). The biosensor was fused to enhanced green fluorescent protein (EGFP) to provide a fluorescence signal insensitive to Cdc42 binding, but with the same subcellular distribution as the sensitive dye. The dye image could be divided by the EGFP image to normalize changes in dye intensity not originating from Cdc42 binding. […] Fluorescence response and Cdc42 binding of the biosensor remained intact after these modifications. […]

Chain of TC10 (P17081 whole entry, species assumed): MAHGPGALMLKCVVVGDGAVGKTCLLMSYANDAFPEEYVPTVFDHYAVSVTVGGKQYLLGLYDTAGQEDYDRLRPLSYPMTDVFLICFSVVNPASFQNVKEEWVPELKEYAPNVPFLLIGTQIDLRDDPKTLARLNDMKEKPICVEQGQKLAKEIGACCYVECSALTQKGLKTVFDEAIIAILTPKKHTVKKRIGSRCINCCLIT
T2 sequence (P61586 whole entry, species assumed): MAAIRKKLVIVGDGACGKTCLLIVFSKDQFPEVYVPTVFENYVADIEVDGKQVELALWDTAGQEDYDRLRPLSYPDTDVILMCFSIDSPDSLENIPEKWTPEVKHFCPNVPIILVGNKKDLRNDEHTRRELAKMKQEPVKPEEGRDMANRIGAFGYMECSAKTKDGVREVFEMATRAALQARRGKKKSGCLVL

Molecule	Abs. λmax ([1]; solvent BuOH) [nm]	Emission λmax ([1]; solvent BuOH) [nm]	Φ (quantum yield of fluorescence) ([1]; solvent BuOH)	ε (molar extinction coefficient) ([1]; solvent BuOH)	ε × F ([1]; solvent BuOH)	Abs. λmax ([1]; solvent C6H6) [nm]	Emission λmax ([1]; solvent C6H6) [nm]	Φ (quantum yield of fluorescence) ([1]; solvent C6H6)	ε (molar extinction coefficient) ([1]; solvent C6H6)	ε × F ([1]; solvent C6H6)	Abs. λmax ([1]; solvent DMF) [nm]	Emission λmax ([1]; solvent DMF) [nm]	Φ (quantum yield of fluorescence) ([1]; solvent DMF)	ε (molar extinction coefficient) ([1]; solvent DMF)	ε × F ([1]; solvent DMF)	Abs. λmax ([1]; solvent MeOH) [nm]	Emission λmax ([1]; solvent MeOH) [nm]	Φ (quantum yield of fluorescence) ([1]; solvent MeOH)	ε (molar extinction coefficient) ([1]; solvent MeOH)	ε × F ([1]; solvent MeOH)	also measured
C[C@@H](N)[C@H]1CC[C@H](C(=O)Nc2ccncc2)CC1 [Y27632]	–	–	–	–	–	–	–	–	–	–	–	–	–	–	–	–	–	–	–	–	effect on protrusions (Rho kinase): caused protrusions to continue expanding even after Cdc42 activity decreased
CCN1/C(=C\C=C\C=C2C(=O)N(C)C(=S)N(C)C2=O)Sc2ccccc21 [dye 1b, 1,3-Dimethyl-5-[(2E,4E)-4-(3-ethyl-1,3-benzothiazol-2(3H)-ylidene)-but-2-enylidene]-2-thioxodihydropyrimidine-4,6(1H,5H)-dione]	595	613	0.26	(188000)	49000	600	617	0.37	(184000)	68000	595	613	0.32	(194000)	62000	583	606	0.13	(134000)	18000	Abs. λmax ([1]; solvent OcOH): 598 nm; Emission λmax ([1]; solvent OcOH): 615 nm; Φ (quantum yield of fluorescence) ([1]; solvent OcOH): 0.52; ε (molar extinction coefficient) ([1]; solvent OcOH): (220000); ε × F ([1]; solvent OcOH): 115000; Absolute rate constant of dye photo-bleaching, kph × 10^6 ([2]; BuOH): 5.2 s^−1; Absolute rate constant of dye photo-bleaching, kph × 10^6 ([2]; MeOH): 4.3 s^−1; ΦT, quantum yield of triplet state formation [3]: 0.008
CN1C(=O)C(=C/C=C/C=C2\N(C)c3ccccc3C2(C)C)C(=O)N(C)C1=S [dye 3a, 1,3-Dimethyl-2-thioxo-5-[(2E,4Z)-4-(1,3,3-trimethyl-1,3-dihydro-2H-indol-2-ylidene)but-2-enylidene]dihydropyrimidine-4,6(1H,5,H)-dione]	589	609	0.61	(190000)	116000	584	605	0.20	(127000)	26000	589	611	0.94	(183000)	172000	583	603	0.26	(173000)	45000	Abs. λmax ([1]; solvent OcOH): 590 nm; Emission λmax ([1]; solvent OcOH): 609 nm; Φ (quantum yield of fluorescence) ([1]; solvent OcOH): 0.99; ε (molar extinction coefficient) ([1]; solvent OcOH): (180000); ε × F ([1]; solvent OcOH): 178000; Absolute rate constant of dye photo-bleaching, kph × 10^6 ([2]; BuOH): 0.78 s^−1; Absolute rate constant of dye photo-bleaching, kph × 10^6 ([2]; MeOH): 0.18 s^−1; ΦT, quantum yield of triplet state formation [3]: 0.003
B1	–	–	–	–	–	–	–	–	–	–	–	–	–	–	–	–	–	–	–	–	interaction with Rac (Rac): did not interact; interaction with RhoA (RhoA): did not interact; response to TC10 (TC10): responded
B2	–	–	–	–	–	–	–	–	–	–	–	–	–	–	–	–	–	–	–	–	Cdc42 activation reported by biosensor in living cells (Cdc42): showed localized Cdc42 activation even in unstimulated cells; also recorded: consistently showed activation in the trans-Golgi apparatus of endothelial cells
